Results taken from patent publication US9365540B2, “Benzimidazole derivatives as MCH receptor antagonists” (Takeda Pharmaceutical Company Limited, priority 2012, dated 2016).

Each compound was assayed against T1, human MCH receptor 1 (MCHR1) (Homo sapiens, UniProt Q99705) (assay: human MCH receptor 1 (MCHR1) competitive binding assay with [125I]-MCH(4-19)). Details: test compound 0.1 μM, human MCHR1-expressing CHO cell membrane fraction, 0.1 µM.
T1 construct: expressed in transfected cells; host or cells: CHO cell clone 57 (membrane fraction)
T1 sequence (Q99705 whole entry): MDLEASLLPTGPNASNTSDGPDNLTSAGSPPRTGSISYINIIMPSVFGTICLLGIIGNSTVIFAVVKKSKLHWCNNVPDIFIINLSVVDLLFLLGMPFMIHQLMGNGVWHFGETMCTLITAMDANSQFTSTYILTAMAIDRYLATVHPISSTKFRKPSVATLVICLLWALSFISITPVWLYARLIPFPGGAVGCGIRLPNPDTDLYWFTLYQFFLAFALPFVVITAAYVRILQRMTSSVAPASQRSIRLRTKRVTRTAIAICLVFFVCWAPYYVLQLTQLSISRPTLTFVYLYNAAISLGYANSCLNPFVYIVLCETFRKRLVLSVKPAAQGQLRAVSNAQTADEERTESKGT
Protocol: Determination of human MCH receptor 1 (MCHR1) competitive inhibitory activity of test compound using binding assay
1. Preparation of Membrane Fraction
Using human MCHR1 (=SLC-1 receptor)-expressing CHO cell clone 57 described in WO01/82925, MCHR1-expressing CHO cell membrane fractions were prepared by the following method.
In phosphate buffered saline (pH 7.4) supplemented with 5 mM EDTA (ethylenediaminetetraacetic acid) were respectively suspended human MCHR1-expressing CHO cells (1×10^8 cells) and centrifuged. Homogenate buffer (10 mL, 10 mM NaHCO3, 5 mM EDTA, pH 7.5, 0.5 mM PMSF (phenylmethylsulfonyl fluoride), 20 mg/L leupeptin, 4 mg/L E-64, 1 mg/L pepstatin A) was added to the pellets of the cells and, using Polytron Homogenizer, the mixture was homogenated. The supernatant obtained after centrifugation at 400×g for 10 min was further centrifuged at 100,000×g for 1 hr to give precipitate of the membrane fraction. The precipitate were suspended in 2 mL of assay buffer [20 mM Tris-HCl (pH 7.5), 5 mM EDTA, 0.5 mM PMSF, 20 mg/L leupeptin, 4 mg/L E-64, 1 mg/L pepstatin A]. The membrane fractions were suspended in assay buffer to a protein concentration of 2 mg/mL, and after dispensing, preserved at −80° C. and used upon thawing each time when in use.
The MCHR1 ligand binding inhibitory activity of the test compound was determined as follows.
An MCHR1-expressing CHO cell membrane fraction (173 μL) diluted with an assay buffer was dispensed to a 96 well polypropylene plate (3363, Corning). DMSO solution (2 μL), 33 μM cold MCH(1-19) diluted with DMSO solution (2 μL), or a test compound solution diluted with DMSO solution to various concentrations (2 μL) was added, and lastly, [^125I]-MCH (4-19) diluted with assay buffer (hereinafter, sometimes to be referred to as “hot MCH”, 25 μL) was added to each well. The mixture was reacted with stirring at room temperature for 1 hr, and the plate was set on FilterMate Harvester (PerkinElmer). Using a treating glass filter plate (GF/C, PerkinElmer) with polyethyleneimine, which had been previously set, the plate was suction-filtered and washed three times with washing buffer (50 mM Tris-HCl buffer pH 7.5). The glass filter plate was dried, MicroScinti0 (PerkinElmer) was added at 25 μL/well, and the resulting radioactivity was measured by TopCount liquid scintillation counter (PerkinElmer). The binding inhibition rate of the test compound was calculated by the following formula. Binding inhibition (%)=100−(radioactivity upon addition of test compound and hot MCH−radioactivity upon addition of cold MCH and hot MCH solution)/(radioactivity upon addition of DMSO solution and hot MCH−radioactivity upon addition of cold MCH and hot MCH solution)×100
The binding inhibition rates (%) of test compounds (0.1 μM) as measured using human MCHR1-expressing CHO cell are shown in Table 2.

Binding inhibition rate % (0.1 μM) [%]	Compound
91	Cn1c(C2CC2C(C)(C)O)nc2ccc(-n3ccc(OCc4ccc(Cl)cc4)cc3=O)cc21 (stereo not drawn) [Example 154, 4-((4-Chlorobenzyl)oxy)-1-(2-((1R*,2S*)-2-(2-hydroxypropan-2-yl)cyclopropyl)-1-methyl-1H-benzimidazol-6-yl)pyridin-2(1H)-one]
89	Cn1c(C2CC2C(C)(C)F)nc2ccc(-n3ccc(OCc4ccc(Cl)cc4)cc3=O)cc21 (stereo not drawn) [Example 209, 4-((4-Chlorobenzyl)oxy)-1-(2-((1R*,2S*)-2-(2-fluoropropan-2-yl)cyclopropyl)-1-methyl-1H-benzimidazol-6-yl)pyridin-2(1H)-one]

Same assay, conditions: test compound 0.1 μM, human MCHR1-expressing CHO cell membrane fraction, read-out: Binding inhibition rate % (0.1 μM)

Compound	inhibition at 0.1 µM [%]
Cn1c(C2CC2)nc2ccc(-n3ccc(OCc4cc(F)cc(F)c4)cc3=O)cc21 [Example 119, 1-(2-Cyclopropyl-1-methyl-1H-benzimidazol-6-yl)-4-((3,5-difluorobenzyl)oxy)pyridin-2(1H)-one]	56
Cc1ccc(COc2ccn(-c3ccc4nc(C5CC5)n(C)c4c3)c(=O)c2)cc1 [Example 142, 1-(2-Cyclopropyl-1-methyl-1H-benzimidazol-6-yl)-4-((4-methylbenzyl)oxy)pyridin-2(1H)-one]	69
Cc1c(C2CC2)nc2ccc(-n3ccc(OCc4ccc(F)c(F)c4)cc3=O)cn12 [Example 146, 1-(2-Cyclopropyl-3-methylimidazo[1,2-a]pyridin-6-yl)-4-((3,4-difluorobenzyl)oxy)pyridin-2(1H)-one]	77
Cc1c(C2CC2)nc2ccc(-n3ccc(OCc4ccc(Cl)c(F)c4)cc3=O)cn12 [Example 151, 4-((4-Chloro-3-fluorobenzyl)oxy)-1-(2-cyclopropyl-3-methylimidazo[1,2-a]pyridin-6-yl)pyridin-2(1H)-one]	73
Cc1nc2ccc(-n3ccc(OCc4ccccc4)cc3=O)cn2c1C [Example 163, 4-(Benzyloxy)-1-(2,3-dimethylimidazo[1,2-a]pyridin-6-yl)pyridin-2(1H)-one]	49
Cc1nc2ccc(-n3ccc(OCc4ccc(Cl)s4)cc3=O)cn2c1C [Example 166, 4-((5-Chlorothiophen-2-yl)methoxy)-1-(2,3-dimethylimidazo[1,2-a]pyridin-6-yl)pyridin-2(1H)-one]	64
Cc1c(C2CC2C#N)nc2ccc(-n3ccc(OCc4ccc(Cl)cc4)cc3=O)cn12 (centres unmarked) [Example 174, 2-(6-(4-((4-Chlorobenzyl)oxy)-2-oxopyridin-1(2H)-yl)-3-methylimidazo[1,2-a]pyridin-2-yl)cyclopropanecarbonitrile]	45
CCc1nc2ccc(-n3ccc(OCc4ccc(Cl)s4)cc3=O)cc2n1C [Example 211, 4-((5-Chlorothiophen-2-yl)methoxy)-1-(2-ethyl-1-methyl-1H-benzimidazol-6-yl)pyridin-2(1H)-one]	76
Cn1c(C2CC2)nc2ccc(-n3ccc(OCc4csc(F)c4)cc3=O)cc21 [Example 216, 1-(2-Cyclopropyl-1-methyl-1H-benzimidazol-6-yl)-4-((5-fluoro-3-thienyl)methoxy)pyridin-2(1H)-one]	88
Cn1c(C2CC2)nc2ccc(-n3ccc(OCc4ccsc4F)cc3=O)cc21 [Example 217, 1-(2-Cyclopropyl-1-methyl-1H-benzimidazol-6-yl)-4-((2-fluoro-3-thienyl)methoxy)pyridin-2(1H)-one]	73
Cn1c(C2CC2)nc2ccc(-n3ccc(OCc4ccsc4Cl)cc3=O)cc21 [Example 221, 4-((2-Chloro-3-thienyl)methoxy)-1-(2-cyclopropyl-1-methyl-1H-benzimidazol-6-yl)pyridin-2(1H)-one]	58

The next lines start with the values.

inhibition at 0.1 µM [%]	Compound
65	CCCc1nc2ccc(-n3ccc(OCc4ccccc4)cc3=O)cc2n1C [Example 126, 4-(Benzyloxy)-1-(1-methyl-2-propyl-1H-benzimidazol-6-yl)pyridin-2(1H)-one]
88	Cc1c(C2CC2)nc2ccc(-n3ccc(OCc4ccc(Cl)s4)cc3=O)cn12 [Example 139, 4-((5-Chloro-2-thienyl)methoxy)-1-(2-cyclopropyl-3-methylimidazo[1,2-a]pyridin-6-yl)pyridin-2(1H)-one]
52	Cc1ocnc1-c1nc2ccc(-n3ccc(OCc4ccc(F)cc4)cc3=O)cc2n1C [Example 145, 4-((4-Fluorobenzyl)oxy)-1-(1-methyl-2-(5-methyl-1,3-oxazol-4-yl)-1H-benzimidazol-6-yl)pyridin-2(1H)-one]
94	Cn1c(C2CC2C(C)(C)O)nc2ccc(-n3ccc(OCc4ccc(Cl)cc4)cc3=O)cc21 (stereo not drawn) [Example 153, 4-((4-Chlorobenzyl)oxy)-1-(2-((1R*,2S*)-2-(2-hydroxypropan-2-yl)cyclopropyl)-1-methyl-1H-benzimidazol-6-yl)pyridin-2(1H)-one]
57	Cc1nc2ccc(-n3ccc(OCc4ccc(F)cc4)cc3=O)cn2c1C [Example 162, 1-(2,3-Dimethylimidazo[1,2-a]pyridin-6-yl)-4-((4-fluorobenzyl)oxy)pyridin-2(1H)-one]
81	Cc1nc2ccc(-n3ccc(OCc4csc(Cl)c4)cc3=O)cn2c1C [Example 165, 4-((5-Chlorothiophen-3-yl)methoxy)-1-(2,3-dimethylimidazo[1,2-a]pyridin-6-yl)pyridin-2(1H)-one]
72	CCc1nc2ccc(-n3ccc(OCc4csc(Cl)c4)cc3=O)cn2c1C [Example 172, 4-((5-Chlorothiophen-3-yl)methoxy)-1-(2-ethyl-3-methylimidazo[1,2-a]pyridin-6-yl)pyridin-2(1H)-one]
82	Cc1c(C2CC2)nc2ccc(-n3ccc(OCc4csc(C(F)F)c4)cc3=O)cn12 [Example 184, 1-(2-Cyclopropyl-3-methylimidazo[1,2-a]pyridin-6-yl)-4-((5-(difluoromethyl)-3-thienyl)methoxy)pyridin-2 (1H)-one]
84	CCc1ncoc1-c1nc2ccc(-n3ccc(OCc4ccc(F)cc4)cc3=O)cc2n1C [Example 201, 1-(2-(4-Ethyl-1,3-oxazol-5-yl)-1-methyl-1H-benzimidazol-6-yl)-4-((4-fluorobenzyl)oxy)pyridin-2(1H)-one]
85	Cn1c(C2CC2C(C)(C)F)nc2ccc(-n3ccc(OCc4ccc(Cl)cc4)cc3=O)cc21 (stereo not drawn) [Example 207, 4-((4-Chlorobenzyl)oxy)-1-(2-((1R*,2S*)-2-(2-fluoropropan-2-yl)cyclopropyl)-1-methyl-1H-benzimidazol-6-yl)pyridin-2(1H)-one]
39	CCC(=O)c1nc2ccc(-n3ccc(OCc4ccc(Cl)cc4)cc3=O)cc2n1C [Example 208, 4-((4-Chlorobenzyl)oxy)-1-(1-methyl-2-propanoyl-1H-benzimidazol-6-yl)pyridin-2(1H)-one]
51	CCc1nc2ccc(-n3ccc(OCc4ccccc4)cc3=O)cc2n1C [Example 210, 4-(Benzyloxy)-1-(2-ethyl-1-methyl-1H-benzimidazol-6-yl)pyridin-2(1H)-one]
79	Cc1cc(COc2ccn(-c3ccc4nc(C5CC5)n(C)c4c3)c(=O)c2)cs1 [Example 213, 1-(2-Cyclopropyl-1-methyl-1H-benzimidazol-6-yl)-4-((5-methyl-3-thienyl)methoxy)pyridin-2(1H)-one]
